This note sets out measurements from patent publication US9328112B2, “Tetracyclic CDK9 kinase inhibitors” (AbbVie Inc., priority 2014, dated 2016).

One experiment deals with H929 cells. Description: Cell viability assay (Cell TiterGlo). Type of experiment: cell-based. Particulars: Homo sapiens, NCI-H929, 24 hours at 37° C., Cell TiterGlo luminescence. Here is the method: The cell viability assay was performed using H929 cells. Cells were seeded in 96-well plates at 10,000 cells/well and, after overnight incubation, treated with compounds in a dose response of 3-fold dilutions from 10 μM to 0.005 μM ([…], 0.1% final DMSO concentration). After 24 hours at 37° C., cell viability was measured using Cell TiterGlo reagent (Promega) with a luminescence reader.
For orientation: ATP-based viability assays read luminescence as a measure of living cells.

The target in the next experiment is CDK9/Cyclin T1 (Homo sapiens (Human), UniProt P50750). Description: CDK9 enzyme assay (LANCE ULight TR-FRET kinase assay). In kind it is biochemical. Conditions: 1000 μM ATP, 100 nM ULight MBP, kinase reaction 1 hour. Here is the method: CDK9 enzyme activities were measured using LANCE ULight TR-FRET kinase assay reagents (PerkinElmer, Waltham, Mass.). Compounds were diluted in 100% DMSO then diluted with 1:10 in serine/threonine kinase assay buffer containing 20 mM HEPES, 10 mM MgCl2, […], and 0.0075% Triton X-100. Equal volume of the compound dilutions was added to a final reaction mixture containing LANCE detection buffer (PerkinElmer CR97-100), 100 nM ULight MBP (PerkinElmer TRF0109M), 1000 μM ATP, and CDK9/Cyclin T1 (Carna Biosciences 04-110). The kinase reaction was carried out for 1 hour before addition of stopping buffer to a final of 20 mM EDTA and 0.5 nM of LANCE Ultra Europium anti-phospho-MBP antibody (PerkinElmer TRF0201M) in LANCE detection buffer. The reaction was incubated for 1 hour and the signal was read in Envision in TR-FRET mode (excitation at 320 nm and emission at 615/665 nm).
Sequence of CDK9/Cyclin T1 (P50750 whole entry): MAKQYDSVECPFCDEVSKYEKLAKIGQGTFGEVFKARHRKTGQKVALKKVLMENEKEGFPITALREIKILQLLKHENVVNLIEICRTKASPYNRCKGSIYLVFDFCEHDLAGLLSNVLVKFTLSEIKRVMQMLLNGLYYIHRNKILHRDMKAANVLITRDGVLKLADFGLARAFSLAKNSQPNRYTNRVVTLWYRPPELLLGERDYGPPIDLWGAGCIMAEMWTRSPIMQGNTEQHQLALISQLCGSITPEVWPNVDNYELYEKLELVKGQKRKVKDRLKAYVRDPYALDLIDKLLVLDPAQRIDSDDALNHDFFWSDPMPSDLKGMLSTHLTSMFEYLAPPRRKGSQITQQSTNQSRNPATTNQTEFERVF
Sequence of CDK9/Cyclin T1 (O60563 whole entry partner): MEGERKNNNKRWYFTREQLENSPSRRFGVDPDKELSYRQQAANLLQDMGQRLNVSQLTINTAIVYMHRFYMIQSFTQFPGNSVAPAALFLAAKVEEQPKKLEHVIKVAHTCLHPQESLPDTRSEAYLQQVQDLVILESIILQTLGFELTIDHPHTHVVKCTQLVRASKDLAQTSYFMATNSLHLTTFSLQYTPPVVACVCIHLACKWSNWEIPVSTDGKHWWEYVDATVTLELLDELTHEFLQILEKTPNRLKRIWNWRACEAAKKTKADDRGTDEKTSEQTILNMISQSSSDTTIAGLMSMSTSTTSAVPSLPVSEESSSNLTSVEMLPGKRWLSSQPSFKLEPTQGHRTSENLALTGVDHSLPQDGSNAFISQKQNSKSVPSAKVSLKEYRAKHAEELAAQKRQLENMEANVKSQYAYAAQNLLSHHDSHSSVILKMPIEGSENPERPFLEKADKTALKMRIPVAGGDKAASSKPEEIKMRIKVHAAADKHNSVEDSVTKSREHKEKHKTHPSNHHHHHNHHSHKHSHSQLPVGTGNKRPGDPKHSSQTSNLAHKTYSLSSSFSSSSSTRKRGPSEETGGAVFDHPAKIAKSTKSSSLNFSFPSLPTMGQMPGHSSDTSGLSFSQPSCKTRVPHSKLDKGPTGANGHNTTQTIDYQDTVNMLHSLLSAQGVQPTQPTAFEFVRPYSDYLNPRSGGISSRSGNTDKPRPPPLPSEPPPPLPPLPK
On the technique in general: TR-FRET usually uses a lanthanide donor and a delayed reading to cut background.

In the case of `CN1Cc2c(C3=C[C@H](CO)NCC3)[nH]c3nccc(c23)-c2cc(F)ccc21` [Example 154, [(2R)-4-(10-fluoro-7-methyl-6,7-dihydro-4H-3,4,7-triazadibenzo[cd,f]azulen-5-yl)-1,2,5,6-tetrahydropyridin-2-yl]methanol], the IC50 (usually the concentration at which inhibition is half-maximal) in the experiment with H929 cells was 0.056 µM; on CDK9/Cyclin T1, 0.028 µM.
For `CN1Cc2c(C3=CCCN(C4CCC(=CC(=O)O)CC4)CC3)[nH]c3nccc(c23)-c2cc(F)ccc21` (centres unmarked) [Example 184, {4-[4-(10-fluoro-7-methyl-6,7-dihydro-4H-3,4,7-triazadibenzo[cd,f]azulen-5-yl)-2,3,6,7-tetrahydro-1H-azepin-1-yl]cyclohexylidene}acetic acid] the same measures were 0.19 µM and 0.13 µM.
Taken in the same sequence, the figures for `CN(CCO)C(=O)CN1CC=C(c2[nH]c3nccc4c3c2CN(C)c2cc(F)c(F)cc2-4)CC1` [Example 157, 2-[4-(9,10-difluoro-7-methyl-6,7-dihydro-4H-3,4,7-triazadibenzo[cd,f]azulen-5-yl)-3,6-dihydropyridin-1(2H)-yl]-N-(2-hydroxyethyl)-N-methylacetamide] were 0.01 µM and 0.046 µM.
Taken in the same sequence, the figures for `CN1Cc2c(C3=CCCN(S(C)(=O)=O)CC3)[nH]c3nccc(c23)-c2cc(F)ccc21` [Example 89, 10-fluoro-7-methyl-5-[1-(methylsulfonyl)-2,3,6,7-tetrahydro-1H-azepin-4-yl]-6,7-dihydro-4H-3,4,7-triazadibenzo[cd,f]azulene] were 0.23 µM and 0.12 µM.
As for `CN1Cc2c(C3=CCN([C@H]4CC[C@H](C(=O)O)CC4)CC3)[nH]c3nccc(c23)-c2cc(F)ccc21` [Example 141, trans-4-[4-(10-fluoro-7-methyl-6,7-dihydro-4H-3,4,7-triazadibenzo[cd,f]azulen-5-yl)-3,6-dihydropyridin-1(2H)-yl]cyclohexanecarboxylic acid], the IC50 in the experiment on H929 cells turned out to be 0.03 µM; against CDK9/Cyclin T1, 0.051 µM.
`CN1Cc2c(C3=CCN(CC(=O)N(C)C4CC(O)C4)CC3(C)C)[nH]c3nccc(c23)-c2cc(F)ccc21` (centres unmarked) [Example 118, 2-[4-(10-fluoro-7-methyl-6,7-dihydro-4H-3,4,7-triazadibenzo[cd,f]azulen-5-yl)-3,3-dimethyl-3,6-dihydropyridin-1(2H)-yl]-N-(3-hydroxycyclobutyl)-N-methylacetamide]: the IC50 stood at 2.6 µM with H929 cells and 1.2 µM against CDK9/Cyclin T1.
For `CN(C)C(=O)CN1CC=C(c2[nH]c3ncc(F)c4c3c2CN(C)c2ccccc2-4)CC1` [Example 163, 2-[4-(1-fluoro-7-methyl-6,7-dihydro-4H-3,4,7-triazadibenzo[cd,f]azulen-5-yl)-3,6-dihydropyridin-1(2H)-yl]-N,N-dimethylacetamide] the same measures were 0.007 µM and 0.056 µM.
Regarding `CN1Cc2c(C3=CCN(CC(=O)N4CC(O)C4)CC3)[nH]c3ncc(F)c(c23)-c2cc(F)ccc21` [Example 72, 2-[4-(1,10-difluoro-7-methyl-6,7-dihydro-4H-3,4,7-triazadibenzo[cd,f]azulen-5-yl)-3,6-dihydropyridin-1(2H)-yl]-1-(3-hydroxyazetidin-1-yl)ethanone], the IC50 amounted to 0.021 µM with H929 cells and 0.079 µM on CDK9/Cyclin T1.
Taken in the same sequence, the figures for `CN1Cc2c(C3=CCN([C@H]4CC[C@@H](CC(=O)O)CC4)CC3)[nH]c3nccc(c23)-c2cc(F)c(F)cc21` [Example 136, {cis-4-[4-(9,10-difluoro-7-methyl-6,7-dihydro-4H-3,4,7-triazadibenzo[cd,f]azulen-5-yl)-3,6-dihydropyridin-1(2H)-yl]cyclohexyl}acetic acid] were 0.021 µM and 0.058 µM.
As for `CN1Cc2c(C3=C[C@@H]4COC(=O)N4CC3)[nH]c3nccc(c23)-c2cc(F)c(F)cc21` [Example 125, (8aR)-7-(9,10-difluoro-7-methyl-6,7-dihydro-4H-3,4,7-triazadibenzo[cd,f]azulen-5-yl)-1,5,6,8a-tetrahydro[1,3]oxazolo[3,4-a]pyridin-3-one], the figures for the IC50 with H929 cells and on CDK9/Cyclin T1 were 0.3 µM and 0.054 µM, respectively.
In the case of `CN1Cc2c(C3=CCN([C@H]4CC[C@@H](CC(=O)O)CC4)CC3)[nH]c3nccc(c23)-c2cc(F)ccc21` [Example 124, {cis-4-[4-(10-fluoro-7-methyl-6,7-dihydro-4H-3,4,7-triazadibenzo[cd,f]azulen-5-yl)-3,6-dihydropyridin-1(2H)-yl]cyclohexyl}acetic acid], the IC50 in the experiment with H929 cells was 0.088 µM; at CDK9/Cyclin T1, 0.048 µM.
For `CN1Cc2c(C3=CCN([C@H]4CC[C@H](CC(=O)O)CC4)CC3)[nH]c3ncc(F)c(c23)-c2ccccc21` [Example 180, {trans-4-[4-(1-fluoro-7-methyl-6,7-dihydro-4H-3,4,7-triazadibenzo[cd,f]azulen-5-yl)-3,6-dihydropyridin-1(2H)-yl]cyclohexyl}acetic acid] the same measures were 0.011 µM and 0.073 µM.
For `CN1Cc2c(C3=CCN(S(C)(=O)=O)CC3)[nH]c3nccc(c23)-c2ccccc21` [Example 160, 7-methyl-5-[1-(methylsulfonyl)-1,2,3,6-tetrahydropyridin-4-yl]-6,7-dihydro-4H-3,4,7-triazadibenzo[cd,f]azulene] the same measures were 0.094 µM and 0.085 µM.
For `CN1Cc2c(C3=CCNCC3)[nH]c3nccc(c23)-c2ccccc21` [Example 158, 7-methyl-5-(1,2,3,6-tetrahydropyridin-4-yl)-6,7-dihydro-4H-3,4,7-triazadibenzo[cd,f]azulene] the same measures were 0.02 µM and 0.096 µM.
Regarding `CN1Cc2c(C3=CCNCC3)[nH]c3ncc(F)c(c23)-c2ccccc21` [Example 159, 1-fluoro-7-methyl-5-(1,2,3,6-tetrahydropyridin-4-yl)-6,7-dihydro-4H-3,4,7-triazadibenzo[cd,f]azulene], the 50% inhibitory concentration (IC50) worked out at 0.008 µM with H929 cells and 0.034 µM at CDK9/Cyclin T1.
For the molecule `CNC(=O)N1C2C=C(c3[nH]c4nccc5c4c3CN(C)c3ccc(F)cc3-5)CC1CCC2` (centres unmarked) [Example 100, 3-(10-fluoro-7-methyl-6,7-dihydro-4H-3,4,7-triazadibenzo[cd,f]azulen-5-yl)-N-methyl-9-azabicyclo[3.3.1]non-2-ene-9-carboxamide], the IC50 with H929 cells worked out at 1.2 µM; at CDK9/Cyclin T1, 0.083 µM.
As to `CN1Cc2c(C3=CCN(CC(=O)O)CC3)[nH]c3nccc(c23)-c2cc(F)c(F)cc21` [Example 145, [4-(9,10-difluoro-7-methyl-6,7-dihydro-4H-3,4,7-triazadibenzo[cd,f]azulen-5-yl)-3,6-dihydropyridin-1(2H)-yl]acetic acid], the IC50 with H929 cells was 0.18 µM; against CDK9/Cyclin T1, 0.042 µM.
For `CN1Cc2c(-c3ccc(S(C)(=O)=O)cc3)[nH]c3nccc(c23)-c2cc(F)ccc21` [Example 43, 10-fluoro-7-methyl-5-[4-(methylsulfonyl)phenyl]-6,7-dihydro-4H-3,4,7-triazadibenzo[cd,f]azulene] the same measures were 0.23 µM and 0.066 µM.
For `CN(C)C(=O)CN1CCC=C(c2[nH]c3nccc4c3c2CN(C)c2ccc(F)cc2-4)CC1` [Example 88, 2-[4-(10-fluoro-7-methyl-6,7-dihydro-4H-3,4,7-triazadibenzo[cd,f]azulen-5-yl)-2,3,6,7-tetrahydro-1H-azepin-1-yl]-N,N-dimethylacetamide] the same measures were 0.15 µM and 0.15 µM.
